Measured values as given in patent US9120805B2, “Substituted pyrrolo[1,2-A]pyrazin-1-ones and pyrazolo[1,5-A]pyrazin-4-ones as inhibitors of tankyrase and poly(ADP-ribose)polymerase activity” (Merck Patent GmbH, priority 2012, dated 2015).

Key:
[1] = target: T1, GST-tagged Tankyrase-1 (1023-1327 aa) (Homo sapiens, UniProt O95271); experiment: Tankyrase 1 autoparsylation assay (HTRF enzyme assay); type: biochemical
T1 construct: GST-tagged Tankyrase-1 (1023-1327 aa)
Experimental: (§1) Biochemical Activity Testing of Tankyrase 1 and 2: Autoparsylation Assay
(§2) The autoparsylation assay is run in two steps: the enzymatic reaction in which GST-tagged Tankyrase-1, resp Tankyrase-2 transferred biotinylated ADP-ribose to itself from biotinylated NAD as co-substrate and the detection reaction where a time resolved FRET between cryptate labelled anti-GST bound to the GST tag of the enzyme and Xlent® labelled-streptavidin bound the biotin-parsylation residue is analysed. The autoparsylation activity was detectable directly via the increase in HTRF signal.
(§3) The autoparsylation assay is performed as 384-well HTRF® (Cisbio, Codolet, France) assay format in Greiner low volume nb 384-well microtiter plates and is used for high throughput screen. 250 nM GST-tagged Tankyrase-1 (1023-1327 aa), respectively about 250 nM GST-tagged Tankyrase-2 (873-1166 aa) and 5 μM bio-NAD (Biolog, Life science Inst., Bremen, Germany) as co-substrate are incubated in a total volume of 5 μl (50 mM HEPES, 4 mM Mg-chloride, 0.05% Pluronic F-68, 1.4 mM DTT, 0.5% DMSO, pH 7.7) in the absence or presence of the test compound (10 dilution concentrations) for 90 min at 30° C. The reaction is stopped by the addition of 1 μl 50 mM EDTA solution. 2 μl of the detection solution (1.6 μM SA-Xlent® (Cisbio, Codolet, France), 7.4 nM Anti-GST-K® (Eu-labelled anti-GST, Cisbio, Codolet, France) in 50 mM HEPES, 800 mM KF, 0.1% BSA, 20 mM EDTA, 0.1% CHAPS, pH 7.0) are added. After 1 h incubation at room temperature the HTRF is measured with an Envision multimode reader (Perkin Elmer LAS Germany GmbH) at excitation wavelength 340 nm (laser mode) and emission wavelengths 615 nm and 665 nm. The ratio of the emission signals is determined. The full value used is the inhibitor-free reaction. The pharmacological zero value used is XAV-939 (Tocris) in a final concentration of 5 μM. The inhibitory values (IC50) are determined using either the program Symyx Assay Explorer® or Condosseo® from GeneData.

[2] = target: T2, GST-tagged Tankyrase-2 (873-1166 aa) (Homo sapiens, UniProt Q9H2K2); experiment: Tankyrase 2 autoparsylation assay (HTRF enzyme assay); type: biochemical
T2 construct: GST-tagged Tankyrase-2 (873-1166 aa)
T2 sequence (Q9H2K2 873-1166): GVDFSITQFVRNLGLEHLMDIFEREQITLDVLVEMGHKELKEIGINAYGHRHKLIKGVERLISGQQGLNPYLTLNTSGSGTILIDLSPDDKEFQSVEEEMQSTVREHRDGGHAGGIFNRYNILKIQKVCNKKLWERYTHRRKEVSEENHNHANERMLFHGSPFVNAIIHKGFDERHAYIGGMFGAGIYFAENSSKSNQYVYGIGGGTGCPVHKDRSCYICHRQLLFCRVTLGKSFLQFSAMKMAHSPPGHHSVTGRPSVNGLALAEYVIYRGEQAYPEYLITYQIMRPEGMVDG
Experimental: as §1, §2, §3

tankyrase 1/2 = experiment: Cellular inhibition of Tankyrase: increase of Axin2 level in DLD1 cells (Luminex); type: cell-based; conditions: 24 hours, read-out: EC50 tankyrase 1/2 (cell assay)
Experimental: Measurement of Cellular Inhibition of Tankyrase
Since Tankyrases have been described to modulate cellular level of Axin2 (Huang et al., 2009; Nature) the increase of Axin2 level is used as read-out for determination of cellular inhibition of Tankyrases in a Luminex based assay.
Cells of the colon carcinoma cell line DLD1 are plated in 96 well plates with 1.5×10^4 cells per well. Next day, cells are treated with a serial dilution of test compound in seven steps as triplicates with a final DMSO concentration of 0.3%. After 24 hours, cells are lysed in lysis buffer (20 mM Tris/HCl pH 8.0, 150 mM NaCl, 1% NP40, 10% Glycerol) and lysates are cleared by centrifugation through a 96 well filter plate (0.65 μm). Axin2 protein is isolated from cell lysates by incubation with a monoclonal anti-Axin2 antibody (R&D Systems #MAB6078) that is bound to fluorescent carboxybeads. Then, bound Axin2 is specifically detected with a polyclonal anti-Axin2 antibody (Cell Signaling #2151) and an appropriate PE-fluorescent secondary antibody. The amount of isolated Axin2 protein is determined in a Luminex^200 machine (Luminex Corporation) according to the manufacturer's instruction by counting 100 events per well. Inhibition of Tankyrase by test compounds results in higher levels of Axin2 which directly correlates with an increase of detectable fluorescence. As controls cells are treated with solvent alone (neutral control) and with a Tankyrase reference inhibitor IWR-2 (3E-06 M) which refers as control for maximum increase of Axin2. For analysis, the obtained data are normalized against the untreated solvent control and fitted for determination of the EC50 values using the Assay Explorer software (Accelrys).

[3] = target: T3, GST-tagged Tnks-1 (1023-1327 aa) (Homo sapiens, UniProt O95271); experiment: TNKS1 activity ELISA (autoparsylation assay); type: biochemical
T3 construct: GST-tagged Tnks-1 (1023-1327 aa, prepared in-house); made in house
T3 sequence (O95271 1023-1327): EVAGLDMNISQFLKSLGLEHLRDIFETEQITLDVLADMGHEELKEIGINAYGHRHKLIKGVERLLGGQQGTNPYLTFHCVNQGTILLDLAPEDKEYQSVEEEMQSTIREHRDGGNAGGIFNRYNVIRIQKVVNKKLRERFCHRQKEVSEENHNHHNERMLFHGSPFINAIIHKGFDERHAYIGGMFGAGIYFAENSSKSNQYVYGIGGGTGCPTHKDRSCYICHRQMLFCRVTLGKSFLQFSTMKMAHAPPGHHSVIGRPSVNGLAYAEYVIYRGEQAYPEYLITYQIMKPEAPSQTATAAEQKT
Experimental: (§4) Description of the TNKS1 and TNKS2 ELISA Assay
(§5) Biochemical Activity Testing of TNKS 1 and 2: Activity ELISA (Autoparsylation Assay)
(§6) For analysis of autoparsylation activity of TNKS 1 and 2 an activity ELISA is performed: In the first step GST tagged TNKS is captured on a Glutathione coated plate. Then the activity assay with biotinylated NAD is performed in the absence/presence of the compounds. During the enzymatic reaction GST tagged TNKS transfers biotinylated ADP-ribose to itself from biotinylated NAD as co-substrate. For the detection streptavidin-HRP conjugate is added that binds to the biotinylated TNKS and is thereby captured to the plates. The amount of biotinylated resp. autoparsylated TNKS is detected with a luminescence substrate for HRP. The level of the luminescence signal correlates directly with the amount of autoparsylated TNKS and therefore with activity of TNKS.
(§7) The activity ELISA is performed in 384 well Glutathione coated microtiter plates (Express capture Glutathione coated plate, Biocat, Heidelberg, Germany). The plates are pre-equilibrated with PBS. Then the plates are incubated with 50 μl 20 ng/well GST-tagged Tnks-1 (1023-1327 aa, prepared in-house), respectively GST-tagged Tnks-2 (873-1166 aa, prepared in-house) in assay buffer (50 mM HEPES, 4 mM Mg-chloride, 0.05% Pluronic F-68, 2 mM DTT, pH 7.7) overnight at 4° C. The plates are washed 3 times with PBS-Tween-20. The wells are blocked by incubation at room temperature for 20 minutes with 50 μl blocking buffer (PBS, 0.05% Tween-20, 0.5% BSA). Afterwards the plates are washed 3 times with PBS-Tween-20. The enzymatic reaction is performed in 50 μl reaction solution (50 mM HEPES, 4 mM Mg-chloride, 0.05% Pluronic F-68, 1.4 mM DTT, 0.5% DMSO, pH 7.7) with 10 μM bio-NAD (Biolog, Life science Inst., Bremen, Germany) as co-substrate in the absence or presence of the test compound (10 dilution concentrations) for 1 hour at 30° C. The reaction is stopped by 3 times washing with PBS-Tween-20. For the detection 50 μl of 20 ng/μl Streptavidin, HRP conjugate (MoBiTec, Göttingen, Germany) in PBS/0.05% Tween-20/0.01% BSA are added and the plates are incubated for 30 minutes at room temperature. After three times washing with PBS-Tween-20 50 μl of SuperSignal ELISA Femto Maximum sensitivity substrate solution (ThermoFisherScientific (Pierce), Bonn, Germany) are added. Following a 1 minute incubation at room temperature luminescence signals are measured with an Envision multimode reader (Perkin Elmer LAS Germany GmbH) at 700 nm. The full value used is the inhibitor-free reaction. The pharmacological zero value used is XAV-939 (Tocris) in a final concentration of 5 μM. The inhibitory values (1050) are determined using either the program Symyx Assay Explorer® or Condosseo® from GeneData.

[4] = target: T4, GST-tagged Tnks-2 (873-1166 aa) (Homo sapiens, UniProt Q9H2K2); experiment: TNKS2 activity ELISA (autoparsylation assay); type: biochemical
T4 construct: GST-tagged Tnks-2 (873-1166 aa, prepared in-house); made in house
T4 sequence (Q9H2K2 873-1166): as the sequence (Q9H2K2 873-1166) above
Experimental: as §4, §5, §6, §7

His-tagged Parp-1 = target: T5, His-tagged Parp-1 (Homo sapiens, UniProt P09874); experiment: PARP-1 autoparsylation assay (HTRF); type: biochemical; conditions: PARP-1 autoparsylation HTRF assay
T5 construct: purchased Enzo Life Sciences GmbH
T5 sequence (P09874 whole entry): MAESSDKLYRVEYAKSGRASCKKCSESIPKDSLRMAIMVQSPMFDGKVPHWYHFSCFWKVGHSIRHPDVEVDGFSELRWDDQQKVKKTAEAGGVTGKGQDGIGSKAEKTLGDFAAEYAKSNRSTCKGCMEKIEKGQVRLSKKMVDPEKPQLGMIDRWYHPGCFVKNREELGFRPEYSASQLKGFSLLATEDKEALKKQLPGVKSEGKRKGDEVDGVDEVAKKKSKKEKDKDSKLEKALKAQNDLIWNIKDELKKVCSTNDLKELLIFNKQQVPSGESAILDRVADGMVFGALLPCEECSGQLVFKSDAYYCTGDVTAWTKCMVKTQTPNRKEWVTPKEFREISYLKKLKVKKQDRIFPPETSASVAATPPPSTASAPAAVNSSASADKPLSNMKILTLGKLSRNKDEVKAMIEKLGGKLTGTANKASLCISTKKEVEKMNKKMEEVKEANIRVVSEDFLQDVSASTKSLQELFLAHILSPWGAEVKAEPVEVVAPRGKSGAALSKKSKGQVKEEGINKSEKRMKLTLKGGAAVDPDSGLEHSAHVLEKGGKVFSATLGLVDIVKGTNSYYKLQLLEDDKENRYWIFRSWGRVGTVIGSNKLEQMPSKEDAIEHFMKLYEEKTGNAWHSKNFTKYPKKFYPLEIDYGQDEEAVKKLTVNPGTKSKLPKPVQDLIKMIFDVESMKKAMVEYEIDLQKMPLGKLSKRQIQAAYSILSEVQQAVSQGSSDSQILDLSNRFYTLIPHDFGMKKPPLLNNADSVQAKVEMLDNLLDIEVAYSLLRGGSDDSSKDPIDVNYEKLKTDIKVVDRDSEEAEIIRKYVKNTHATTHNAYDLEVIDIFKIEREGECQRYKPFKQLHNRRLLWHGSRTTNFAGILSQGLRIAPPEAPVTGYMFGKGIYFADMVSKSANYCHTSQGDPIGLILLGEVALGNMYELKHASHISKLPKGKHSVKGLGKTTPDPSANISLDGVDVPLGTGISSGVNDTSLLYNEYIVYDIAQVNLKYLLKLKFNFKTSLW
Description: Description of the PARP1 Assay
Biochemical Activity Testing of PARP-1: Autoparsylation Assay
The autoparsylation assay is run in two steps: the enzymatic reaction in which
His-tagged Parp-1 transfers biotinylated ADP-ribose/ADP-ribose to itself from biotinylated NAD/NAD as co-substrate and the detection reaction where a time resolved FRET between cryptate labelled anti-His antibody bound to the His tag of the enzyme and Xlent® labelled-streptavidin bound the biotin-parsylation residue is analysed. The autoparsylation activity is detectable directly via the increase in HTRF signal.
The autoparsylation assay is performed as 384-well HTRF® (Cisbio, Codolet, France) assay format in Greiner low volume nb 384-well microtiter plates. 35 nM His-tagged Parp-1 (human, recombinant, Enzo Life Sciences GmbH, Lörrach, Germany) and a mixture of 125 nM bio-NAD (Biolog, Life science Inst., Bremen, Germany) and 800 nM NAD as co-substrate are incubated in a total volume of 6 μl (100 mM Tris/HCl, 4 mM Mg-chloride, 0.01% IGEPAL® CA630, 1 mM DTT, 0.5% DMSO, pH 8, 13 ng/μl activated DNA (BPS Bioscience, San Diego, US)) in the absence or presence of the test compound (10 dilution concentrations) for 150 min at 23° C. The reaction is stopped by the addition of 4 μl of the Stop/detection solution (70 nM SA-Xlent® (Cisbio, Codolet, France), 2.5 nM Anti-His-K® (Eu-labelled anti-His, Cisbio, Codolet, France) in 50 mM HEPES, 400 mM KF, 0.1% BSA, 20 mM EDTA, pH 7.0). After 1 h incubation at room temperature the HTRF is measured with an Envision multimode reader (Perkin Elmer LAS Germany GmbH) at excitation wavelength 340 nm (laser mode) and emission wavelengths 615 nm and 665 nm. The ratio of the emission signals is determined. The full value used is the inhibitor-free reaction. The pharmacological zero value used is Olaparib (LClabs, Woburn, US) in a final concentration of 1 μM. The inhibitory values (IC50) are determined using either the program Symyx Assay Explorer® or Condosseo® from GeneData.

T1 sequence (O95271 1023-1327): as the sequence (O95271 1023-1327) above

IC50 (His-tagged Parp-1) [nM] | Compound | IC50 [1] [nM] | IC50 [2] [nM] | EC50 (tankyrase 1/2) [nM] | IC50 [3] [nM] | IC50 [4] [nM]
 | CC(C)(C)c1ccc(-c2cn3nccc3c(=O)[nH]2)cc1 [Compound A15, 6-(4-tert-butyl-phenyl)-5H-pyrazolo[1,5-a]pyrazin-4-one] | < 300 | < 300 | < 300 | < 300 | < 300
 | CC(C)(C)c1ccc(-c2cn3nc(CO)cc3c(=O)[nH]2)cc1 [Compound A18, 6-(4-tert-butyl-phenyl)-2-hydroxymethyl-5H-pyrazolo[1,5-a]pyrazin-4-one] | < 300 | 300 to 3000 | 300 to 3000 | < 300 | < 300
 | Cc1cc2c(=O)[nH]c(-c3ccc(N4CCCC4)cc3)cn2n1 [Compound A37, 2-methyl-6-(4-pyrrolidin-1-yl-phenyl)-5H-pyrazolo[1,5-a]pyrazin-4-one] | < 300 | 300 to 3000 | 300 to 3000 | < 300 | 
 | Cc1cc2c(=O)[nH]c(-c3ccc(C(C)(C)C)cc3)cn2c1 [Compound A38, 3-(4-tert-butyl-phenyl)-7-methyl-2H-pyrrolo[1,2-a]pyrazin-1-one] |  |  | < 300 | < 300 | < 300
300 to 3000 | Cc1cc2c(=O)[nH]c(-c3cnn(C(C)(C)C)c3)cn2c1 [Compound A57, 3-(1-tert-butyl-1H-pyrazol-4-yl)-7-methyl-2H-pyrrolo[1,2-a]pyrazin-1-one] | 300 to 3000 | 300 to 3000 |  | < 300 | 300 to 3000
 | CN1CCC(c2ccc(-c3cn4cc(F)cc4c(=O)[nH]3)cc2)CC1 [Compound A81, 7-fluoro-3-[4-(1-methyl-piperidin-4-yl)-phenyl]-2H-pyrrolo[1,2-a]pyrazin-1-one] | < 300 | 300 to 3000 | 300 to 3000 | < 300 | < 300
< 300 | CC(C)(O)c1ccc(-c2cn3c(F)c(F)cc3c(=O)[nH]2)cc1 [Compound A83, 6,7-difluoro-3-[4-(1-hydroxy-1-methyl-ethyl)-phenyl]-2H-pyrrolo[1,2-a]pyrazin-1-one] |  |  |  | < 300 | < 300
300 to 3000 | CC(C)(O)c1ccc(-c2cn3c(F)ccc3c(=O)[nH]2)cc1 [Compound A84, 6-fluoro-3-[4-(1-hydroxy-1-methyl-ethyl)-phenyl]-2H-pyrrolo[1,2-a]pyrazin-1-one] |  |  |  | < 300 | < 300
300 to 3000 | O=c1[nH]c(-c2ccc(C3(O)CCCC3)cc2)cn2cc(F)cc12 [Compound A85, 7-fluoro-3-[4-(1-hydroxy-cyclopentyl)-phenyl]-2H-pyrrolo[1,2-a]pyrazin-1-one] |  |  |  | < 300 | < 300
 | CC(C)(C)c1ccc(-c2cn3cc(C#N)cc3c(=O)[nH]2)cc1 [Compound A92, 3-(4-tert-butyl-phenyl)-1-oxo-1,2-dihydro-pyrrolo[1,2-a]pyrazine-7-carbonitrile] | < 300 | 300 to 3000 | 3000 to 50000 | < 300 | < 300
 | Cc1ccc2c(=O)[nH]c(-c3ccc(C(C)(C)O)cc3)cn12 [Compound A95] |  |  | < 300 |  | < 300
 | O=c1[nH]c(-c2ccc(C3(O)COC3)cc2)cn2cccc12 [Compound A110] | < 300 | 300 to 3000 | 300 to 3000 | < 300 | < 300
